# Experimental data taken from US20160244755A1, “TREATING DISEASES ASSOCIATED WITH PGC1-ALPHA BY MODULATING MICRORNAS MIR-130A AND MIR-130B” (ACADEMIA SINICA;, priority 2013, published 2016).
# “Also recorded” adds a separate entry of the source. Like-named read-outs stand apart in the source and are kept apart here.
# Legend:
# Assay type in all cases: cell-based, human
# miR-130a = miR-130a expression in PPARγ-expressing HepG2 cell lines (stem-loop qPCR); details: stable PPARγ-expressing HepG2 cell lines, U6 snRNA internal control
# Method: Rosiglitazone and GW9662 were from Sigma. […] At 24 h post-transfection, Rosiglitazone or GW9662 in 0.1% DMSO was added to medium. Culture medium was changed ever two days before harvest.
# Briefly, 100 ng RNAs were reverse transcribed by specific stem-loop primer and further analyzed by Taqman real-time PCR assay using default setting. […] Data were analyzed by Applied Biosystems 7500 software V2.0.1.
# HepG2 cells = assay: measurement of glucose production in cell culture; design: glucose production: dose or concentration left out as unconfirmed
# Method: Rosiglitazone and GW9662 were from Sigma. HepG2 and Huh7 cells were seeded in 6-well tissue culture plates at 5×10, Quasdorff, M. et al. Journal of viral hepatitis 17, 527-536 (2010) cells/well. At 24 h post-transfection, Rosiglitazone or GW9662 in 0.1% DMSO was added to medium. Culture medium was changed ever two days before harvest.
# The glucose level of HBV transgenic mice was measured using a kit of DRI-CHEM SLIDE GLU-PIII (FUJIFILM, JAPAN). Ten microliters of mouse serum was deposited on a FUJI DRI-CHEM SLIDE GLU-PIII. Glucose oxidase (GOD) catalyzes the oxidization of sample glucose to generate hydrogen peroxide which then reacts with dye precursors and forms red dye. The optical reflection density was measured at 505 nm by the FUJI DRI-CHEM analyzer and converted into the glucose concentration […]. For the measurement of glucose concentration in cell culture, HBV producing cells (HepG2 and Q7 cells) were treated with PPARγ antagonist, GW9662 at indicated concentrations. Twenty-four hours before glucose measurement, the medium was replaced with 1 ml of glucose-free DMEM, supplemented with 2 mM sodium pyruvate. After 16 hrs incubation, 50 μl of medium was collected and the glucose concentration (mM) was measured using the glucose colorimetric assay (Biovision).
# G6Pase mRNA = G6Pase mRNA in stable miR-130a expressing HepG2 cells (Northern blot)
# Method: (§1) HBV core particle-associated DNA, total cellular cytoplasmic RNA, and microRNA were analyzed by Northern blot as described previously. Chua, P. K., et al. Journal of virology 84, 2340-2351 (2010), Le Pogam, S., et al., Journal of virology 79, 1871-1887 (2005).
# (§2) Approximately one million Huh7 and HepG2 cells were transiently transfected by 3 μg plasmid DNA (pSuper and pSuper-miR-130a) with Polyjet (SignaGen), followed by G418 selection for three weeks. The G418-resistant colonies were pooled together.
# SP1 = SP1 protein in stable miR-130a expressing HepG2 cell lines (Western blot)
# Method: (§3) Native agarose gel electrophoresis and Western blot for detecting HBV core particles were as described. Chua, P. K., et al. Journal of virology 84, 2340-2351 (2010),
# as §2
# adiponectin [1] = assay: adiponectin protein in stable miR-130a expressing cells (Western blot)
# Source text: (§4) Anti-HBc (Dako), anti-PPARγ (Santa Cruz), anti-GAPDH, anti-PKLR, anti-G6Pase, anti-tubulin, anti-adiponectin (GeneTex, Taiwan), anti-PGC1α (Origene), anti-PCK1 (Abnova), anti-GCK (Biovision), Secondary antibodies include mouse anti-rabbit-HRP, goat anti-mouse-HRP (GeneTex, Taiwan) and donkey anti-goat-HRP (Santa Cruz).
# as §3, §2
# PGC1α = PGC1α protein in stable miR-130a expressing cells (Western blot)
# Source text: as §4, §3, §2
# HNF4 = HNF4 protein in stable miR-130a expressing HepG2 cell lines (Western blot)
# Method: as §3, §2
# glucokinase (GCK) = glucokinase (GCK) protein in stable miR-130a expressing HepG2 cells (Western blot)
# Source text: as §4, §3, §2
# [2] = tested on: 3′ UTR of PPARγ (NM_005037); assay: luciferase reporter cotransfection assay, 3′ UTR of PPARγ
# Source text: (§5) Assay for 3′ UTR or enhancer/promoter was as described previously. Chen, H. L., et al., PloS one 7, e34116 (2012).
# PEPCK mRNA = PEPCK mRNA in stable miR-130a expressing HepG2 cells (Northern blot)
# Method: as §1, §2
# pyruvate kinase (PKLR) = pyruvate kinase (PKLR) protein in stable miR-130a expressing cells (Western blot); details: stable miR-130a expressing Huh? cells
# Source text: as §4, §3, §2
# adiponectin [3] = assay: secreted adiponectin ELISA, miR-130a expressing cell lines
# Method: The concentration of secreted adiponectin was measured by ELISA (Biovision). ELISA of HBsAg and HBeAg was from General Biologicals Co., Taiwan.
# as §2
# PPARα = PPARα protein in stable miR-130a expressing HepG2 cell lines (Western blot)
# Method: as §3, §2
# GCK mRNA = GCK mRNA in stable miR-130a expressing cells (RT-qPCR)
# Method: (§6) Briefly, 2 μg of total RNA was reverse transcribed into cDNA using random primers and High Capacity cDNA Reverse Transcription kit (Applied Biosystem) at 37° C. for 120 minutes. The cDNA product was then diluted 100 times for real-time PCR analysis using Power SYBR Green PCR master mix (Applied Biosystem), and the default condition in a 20 μl reaction volume by Applied Biosystems 7500 Real-Time PCR System. Data were analyzed by relative quantification methods (AACt methods) using 7500 software V2.0.1.
# as §2
# 3′ UTR of PGC1α = assay: compensatory mutagenesis luciferase cotransfection assay, PGC1α 3′UTR
# Method: as §5
# To distinguish between a direct and an indirect mechanism of miR-130a on reducing PGC1α mRNA, a reporter assay was performed using 3′UTR from either PPARγ or PGC1α. […] Next, compensatory mutations were introduced into the seed sequences of miR-130a and its evolutionarily conserved target site of PGC1α (FIG. 10). […] In a dose-dependent manner, miR-130a could reduce, while LNA-miR-130a could increase, the luciferase activity of a reporter containing the 3′UTR of PGC1α (FIG. 11).
# CEBPb = CEBPb protein in stable miR-130a expressing HepG2 cell lines (Western blot)
# Method: as §3, §2
# PPARγ mRNA = PPARγ mRNA in stable miR-130a expressing cell lines (Northern blot, RT-qPCR); details: stable miR-130a expressing HepG2 cell lines
# Method: as §6, §1, §2
# PKLR mRNA = PKLR mRNA in stable miR-130a expressing cells (RT-qPCR)
# Method: as §6, §2
# PPARγ = PPARγ protein in stable miR-130a expressing cells (Western blot)
# Source text: as §4, §3, §2
# PEPCK = PEPCK protein in miR-130a expressing hepatocytes (Western blot)
# Source text: as §4, §3, §2
# G6Pase = G6Pase protein in miR-130a expressing hepatocytes (Western blot)
# Source text: as §4, §3, §2
# PGC1α mRNA = PGC1α mRNA in stable miR-130a expressing cell lines (Northern blot, RT-qPCR); details: stable miR-130a expressing HepG2 cell lines
# Method: as §6, §1, §2
# [4] = tested on: 3′ UTR of PGC1α (NM_013261); assay: luciferase reporter cotransfection assay, 3′ UTR of PGC1α; details: for luciferase activity, reporter with 3′ UTR of PGC1α: reporter cotransfection assay
# Source text: as §5
molecule,measurement,setting,value
O=C(Nc1ccccc1)c1cc([N+](=O)[O-])ccc1Cl [GW9662],expression of miR-130a,miR-130a,not
same,glucose production,"HepG2 cells; HepG2 cells, irrespective of HBV-producing status",further increased; also recorded: increase
miR-130a: human microRNA comprising CAGUGCAAUGUUAAAAGGGCAU (SEQ ID NO:1); expressed from pSuper-miR-130a in stable cell lines,G6Pase mRNA expression,G6Pase mRNA,reductions; also recorded: reduced
same,protein level of SP1,SP1,No appreciable difference
same,adiponectin protein,adiponectin [1],reduction
same,PGC1α protein,PGC1α,reduction
same,protein level of HNF4,HNF4,No appreciable difference
same,glucokinase (GCK) protein level,glucokinase (GCK),not reduced but increased; also recorded: increased level
same,"luciferase activity, reporter with 3′ UTR of PPARγ",[2],functional interaction
same,"luciferase activity, reporter with 3′ UTR of PPARγ",[2]; listed as MiR-130a,significantly reduced
same,PEPCK mRNA expression,PEPCK mRNA,reductions; also recorded: reduced
same,pyruvate kinase (PKLR) protein level,pyruvate kinase (PKLR),not reduced but increased; also recorded: increased level
same,secreted adiponectin,adiponectin [3],significantly reduced; also recorded: reduction
same,protein level of PPARα,PPARα,No appreciable difference
same,GCK specific mRNA level,GCK mRNA,increased
same,direct targeting of 3′ UTR of PGC1α by compensatory mutagenesis,3′ UTR of PGC1α; p<0.05,directly target
same,protein level of CEBPb,CEBPb,No appreciable difference
same,PPARγ mRNA,PPARγ mRNA,reduction
same,glucose level,HepG2 cells; control vs miR-130a producing cells,No significant difference
same,PKLR specific mRNA level,PKLR mRNA,increased
same,PPARγ protein,PPARγ,reduction
same,PEPCK protein expression,PEPCK,reductions; also recorded: Reduced
same,G6Pase protein expression,G6Pase,reductions; also recorded: Reduced
same,PGC1α mRNA,PGC1α mRNA,reduction
same,PGC1α 3′UTR luciferase reporter activity with increasing amounts,"[4]; dose response, co-transfection",reduce; also recorded: decreasing reporter activity in a dose response manner
same,"luciferase activity, reporter with 3′ UTR of PGC1α",[4],functional interaction
same,"luciferase activity, reporter with 3′ UTR of PGC1α",[4]; listed as MiR-130a,significantly reduced
"mutant miR-130a: miR-130a with compensatory mutations in the seed sequence, SEQ ID NO: 69 (CUGAGCAAUGUUAAAAGGGCAU; listed as RNA, chemistry not given here) [reference compound]","luciferase activity, mutant PGC1α 3′UTR target site","3′ UTR of PGC1α; combination of mutant miR-130a and mutant PGC1α, cotransfection",restore the inhibitory effect
